Source: patent publication US5808109A, “Compounds that inhibit complement and/or suppress immune activity” (T Cell Sciences, Inc., priority 1995, dated 1998)
“And” between values parts separate entries of the source, which are not always exact repeats. Equal values may be shown once. Where a name gives a salt, the structure may show the parent alone. Read-outs that look alike come from different tables or passages of the source.

How the values were obtained:
human complement = assay: Inhibition of complement-mediated hemolysis, human serum, sensitized sheep erythrocytes; type: biochemical
Protocol: The ability to inhibit complement was also tested by assaying for inhibition of complement-mediated red cell lysis (hemolysis). The inhibition of hemolysis was determined as a function of compound concentration. The compounds to be tested were diluted in 0.1M Hepes buffer (0.15N NaCl, pH 7.4), and 50 μl were added to each well of a V-bottom microtiter plate. Human serum, used as the complement source, was diluted 1 to 500 in Hepes buffer, and 50 μl were added to each well. Next, commercially available sheep erythrocytes with anti-sheep antibody (Diamedix Cat. No. 789-001) were used as received and added at 100 μl/well to initiate the complement pathway leading to hemolysis. The plate was incubated for 60 minutes at 37° C. and then centrifuged at 500×g for 10 minutes. The supernatants were removed and placed in a flat-bottom microtiter plate. The extent of hemolysis was measured as a function of the sample absorbance at 410 nm. The maximal absorbance (corresponding to maximal hemolysis), Amax, was obtained from the absorbance value of an erythrocyte sample containing only human serum, AS, less the absorbance of a sample containing only the red cells, A0. Thus, Amax =AS -A0. The difference between the absorbance of an erythrocyte sample containing both human serum and inhibitive compound, and the absorbance of a cell sample containing inhibitive compound only, was defined as Asample. The inhibition, IH, was expressed as the fraction (Amax -Asample)/Amax, and IH50 was defined as the concentration of inhibitive compound required to produce a value of IH=1/2.
The 4 substituted spirobenzofuran compounds of example 7 and the disubstituted spirobenzofuran compounds of example 8 were tested for their capacity to inhibit complement-mediated lysis of sheep red blood cells (SRBC) as described in Section 6.6.2 supra with the modification that the human serum used as the complement source was diluted to 1 to 100 in Hepes buffer, instead of […]. The results of the hemolysis assays are shown in FIG. 8 and Tables XI and XII.

[1] = system: alternative complement pathway; assay: Inhibition of alternative pathway mediated hemolysis, rabbit erythrocytes, human serum; type: biochemical; details: Table XIV, human serum 1 in 24, read-out: Alternative pathway AH50
Protocol: The capacity of the substituted dihydrobenzofurans to inhibit the alternative complement pathway was assessed using the modified method of Platts-Mills and Ishizaka, 1974, J. Immunol., 113:348-358. Essentially, rabbit erythrocytes were lysed using human serum as complement in gelatin veronal buffer (GVB, Sigma, St. Louis, Mo.) with added EGTA (ethylene glycol-bis[β-aminoethyl ether]N,N,N^1,N^1 -tetraacetic acid) and Mg^2+ to 8 mM and 2 mM, respectively. Rabbit erythrocytes (4.5×10^6 cells/ml), human serum (1 in 24 dilution), and the compounds to be tested were incubated one hour at 37° C. in a V-bottom microtiter plate, cells pelleted by centrifugation, the supernatants transferred to a flat-bottom microtiter plate, and the absorbance at 410 nm determined. Samples were paired with identical controls lacking human serum (complement-independent lysis). Both samples and controls were run in triplicate. Control values were subtracted from sample values and the fractional inhibition was determined relative to the uninhibited (no added compound) sample. Results are reported as the concentration of compound yielding fifty per cent (50%) inhibition, AH50. The AH50 values for several of the compounds are included along with the results of other in vitro assays in Table XIV.

factor I = molecular target: T1, factor I (Homo sapiens, UniProt P05156); assay: Inhibition of C3b proteolysis by factor I (SDS-PAGE densitometry); type: biochemical; details: sCR1 8 nM as cofactor, C3b 1.2 μM, factor I 0.1 μM, 60 min 37° C.; read-out: C3b cleavage by Factor I, concentration yielding 50% inhibition
T1 construct: purchased Cytotech, San Diego, Calif
T1 sequence (P05156 340-583 limits assumed): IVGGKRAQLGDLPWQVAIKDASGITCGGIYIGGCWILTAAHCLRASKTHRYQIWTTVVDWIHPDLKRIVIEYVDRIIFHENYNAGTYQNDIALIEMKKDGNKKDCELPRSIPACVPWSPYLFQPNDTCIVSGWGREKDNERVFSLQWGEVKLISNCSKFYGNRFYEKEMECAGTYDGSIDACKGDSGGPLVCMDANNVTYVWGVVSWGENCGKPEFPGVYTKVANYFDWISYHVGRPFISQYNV
From the text: The reactions were stopped by the addition of reducing SDS-PAGE sample buffer (Laemmli, 1970, Nature, 227:680-685) subjected to electrophoresis on 4-20% polyacrylamide gradient gels, visualized with Coomassie Blue stain, and quantitated by densitometry. Controls lacking factor I and controls with factor I but lacking test compounds were included. Results are reported as the concentration of test compound which inhibited approximately fifty percent (50%) of the C3b a-chain degradation, IC50.

[2] = system: hyperacute graft rejection; assay: Guinea pig-to-rat cardiac transplant (discordant xenograft); type: in vivo; details: 28 mg/rat intravenous bolus; for Graft survival time: individual animals
Protocol: The effects of compounds 68 and 44a on hyperacute graft rejection were tested in a model of discordant xenografting. The methods were the same as described previously (Prewitt et al., 1991, Transplantation 52:868-873) except that the test compounds were substituted for the active agent (sCR1) of the earlier study. As indicated in the earlier study, male Lewis rats, 12-16 weeks of age, and male Hartley guinea pigs, 4-10 weeks of age (Charles River, Wilmington, Mass.) served as cardiac xenograft recipients and donors, respectively. Under Halothane anesthesia, heterotopic cardiac xenotransplantation was performed by a modification of the microvascular technique of Ono and Lindsey, 1990, J. Thorac. Cardiovas.
Cardiac xenografts were evaluated visually over the first 30 minutes following reperfusion and then, following abdominal closure, every 10 minutes by palpation until rejection. Rejection was defined as total cessation of cardiac xenograft contraction and was confirmed by direct visualization and histological examination. […] Control animals received similar volumes of PBS. Three (n=3) control animals were tested concurrent with the animals receiving compound 68; data from historic controls (n=13) subjected to the same procedure and previously reported (Pruitt et al., 1991, Transplantation 52:868-873) are also included for comparison. Table XV includes the xenograft survival times (minutes) for individual animals and the means and standard errors of the mean (SEM) for the various groups.

rat complement = assay: Inhibition of complement-mediated hemolysis, rat serum as complement source; type: biochemical; details: Table XIII; read-out: IH50 for Rat Complement
C3a production = assay: Inhibition of C3a production in human serum (aggregated IgG, RIA); type: biochemical; details: at a concentration of about 8.5 mM
Protocol: (§1) The ability to inhibit complement was tested by assaying for specific inhibition of C3a and C5a production. For all experiments, a single human serum pool, to be used as a source of complement, was aliquoted and stored frozen at -70° C. Human IgG was heat-aggregated, aliquoted, and stored frozen at -70° C. For each experiment, serum aliquots were equilibrated at 37° C. with varying concentrations of the compounds tested. The classical complement pathway was initiated by the addition of aggregated human IgG. Control samples containing no IgG were always included. After a fixed reaction time of 10 minutes (determined in an earlier time-course study to provide a convenient time interval during which the production of C5a or C3a is nearly complete, i.e., greater than 90%), the levels of the released complement peptides (C5a or C3a) were determined by radioimmunoassay using commercially available radioimmunoassay (RIA) kits (C5a RIA, UpJohn Cat. No. 3250-02; C3a RIA, UpJohn Cat. No. 3245-01; C5a RIA, Amersham Cat. No. RPA.520; C3a RIA, Amersham RPA.518).
(§2) Since a competitive immunoassay was used, complement peptide (C5a and C3a) concentrations varied inversely with the counts. The Counts Bound (CB) for a sample was defined as the total counts (in counts per minute, cpm) measured in the pellet minus the counts measured in a nonspecific binding (NSB) control. The NSB control was a sample containing only tracer peptide (^125 I-labelled) and second precipitating antiserum; it contained no C5a- or C3a-specific antiserum.
(§3) The y-axis in FIG. 2 represents the fraction inhibition. The fraction inhibition is equal to the Counts Bound (CB) for a "sample," less the CB in the "sample with no added compound," divided by the CB for the "no IgG control" less the CB in the "sample with no added compound." [formula]
(§4) FIG. 2 is representative of the data plots obtained from the assays described above.

C5a production = assay: Inhibition of C5a production in human serum (aggregated IgG, RIA); type: biochemical; details: concentration inhibiting C5a production 50% relative to control
Protocol: as §1, §2, §3, §4

[3] = system: human peripheral blood lymphocytes (PBL); assay: Inhibition of proliferation of peripheral blood lymphocytes, 3H-thymidine incorporation; type: cell-based; details: Lymphocyte, Table IX, 72 h
Protocol: The proliferation of human peripheral blood lymphocytes (PBL) in response to phytohemagglutinin (PHA, Well-come) or anti-CD3 monoclonal antibody (OKT-3, Ortho) was assessed by the incorporation of ^3 H-thymidine. Compound 11a was diluted in culture media to the desired concentrations, human PBL were added to a final concentration of 10^6 cells/ml, and then either PHA (Wellcome) or anti-CD3 (OKT3, Ortho) antibody (final concentration, […]) was added to initiate proliferation. The final volume per sample was 100 μl. The cells were incubated for 72 hours after stimulation, pulsed with 1 μCi ^3 H-thymidine per sample for 4 hours, harvested, and counted in a scintillation counter. […] Because cell viability was unaffected by the presence of 11a (see supra), the inhibition apparently was not due to cytotoxic effects.

[4] = system: guinea pig serum complement; details: sensitized sheep erythrocytes, read-out: concentration reducing hemolysis 50%; cited from earlier work
[5] = Table XI, human serum diluted 1 to 100, read-out: IH50 Mean
[6] = Table XIII, read-out: IH50 for Human Complement
[7] = Table XIV, read-out: Classical pathway IH50

Molecule | effectiveness in inhibiting complement-mediated hemolysis compared with K76COOH (human complement) | IC50 (human complement; [5]) [µM] | IC50 (human complement; [6]) | IC50 (human complement; [7]) [µM] | IC50 [1] [µM] | IC50 (factor I) [µM] | Graft survival time Mean ± SEM [2] [min] | graft survival relative to controls [2] | Graft survival time [2] | IC50 (rat complement) [µM] | IC50 (human complement; Table XII, human serum diluted 1 to 100, read-out: IH50 Mean) [µM] | Graft survival time ([2]; SODIUM SALT) | inhibition of C3a production (C3a production) | IC50 (C5a production) [µM] | IC50 (human complement; Table VII, human serum, read-out: IHO50) [µM] | IC50 ([3]; PHA stimulation, read-out: IP50 PHA-stimulated PBL) [µM] | IC50 ([3]; anti-CD3 (OKT-3) stimulation, read-out: IP50 OKT-3-stimulated PBL) [µM] | IC50 [4] [µM]
COc1cc(C(=O)O)c(C=O)c2c1CC1(CCCCC1)O2 [Compound 68, 6-carboxy-7-formyl-4-methoxyspiro[benzofuran-2(3H)-cyclohexane]] | more effective | 164 | 100 µM and 164 µM | 160 | 1360 | 150 | 142 ± 76 | prolonged graft survival times in 2 of the 3 animals | 7 min and 150 min and 270 min |  |  |  |  |  |  |  |  | 
sCR1: soluble human recombinant complement receptor type 1, used as a positive control in the in vitro assays |  |  | 0.0009 µM |  |  |  |  |  |  | 0.0015 |  |  |  |  |  |  |  | 
COc1cc(C(=O)O)cc2c1CC1(CCCCC1)O2 [Compound 44a, 6-CARBOXYL-4-METHOXYSPIRO[BENZOFURAN-2(3H)-CYCLOHEXANE] SODIUM SALT] |  | 530 | 538 µM | 530 | > 5030 | 2740 | 8 |  |  | 17300 | 532 | 7 min and 9 min |  |  |  |  |  | 
CC1CCC2C(C)(C)C(O)C(O)CC2(C)C12Cc1c(O)cc(C(=O)O)c(C=O)c1O2 (centres unmarked) [K-76 COONa, reference compound] |  |  |  |  |  |  |  |  |  |  |  |  | Only marginal inhibition | 3000 | 570 | 500 | 500 | 341
